# Results from patent US12414996B2, “Organic anion transporting peptide-based cancer imaging and therapy” (Da Zen Theranostics, Inc., priority 2014, dated 2025).
# pIC50: −log10 of the molar value.
# How the values were obtained:
# prostate PDX tumors = assay: Uptake of NIR dye by prostate PDX tumors implanted in mouse subrenal capsules; format: in vivo; conditions: i.p., imaging after 48 hours, excitation 783 nm, emission 840 nm
# Procedure: (A) Representative NIR fluorescence imaging of control mouse with no tumor and mouse with sham-operation and PCa implantation in the subrenal capsules of the kidneys. Mice were injected i.p with NIR dye, MHI-148, 48 hours before fluorescence imaging at excitation of 783 nm and emission of 840 nm. […] (B) Representative ex vivo NIR fluorescence imaging of kidneys with sham operation and PCa tumor implantations. NIR fluorescence signal was only detected in the growing PCa tumors implanted in the subrenal capsule of the right kidney. (C) Fluorescent microscopy of DAPI, NIR, and merged images of frozen sections of the human PCa tumor and the mouse kidney from the subrenal xenograft model (200× magnification) (D) Representative H&E staining of the PCa tumors implanted in the mouse kidney capsule (40× magnification; inlet: 400× magnification).
# The uptakes of NIR dye MHI-148 by prostate PDX tumors implanted in mouse subrenal capsules were investigated. […] Mice were injected i.p with NIR dye, MHI-148. After 48 hours, fluorescence imaging was performed with an excitation of 783 nm and emission of 840 nm. […] NIR fluorescence signal was only detected in the growing prostate cancer tumors implanted in the subrenal capsule of the right kidney.
# pancreatic PDX tumors = assay: Uptake of NIR dye by pancreatic PDX tumors implanted in mouse subrenal capsules; format: in vivo; conditions: subrenal capsule implant
# Excerpt: (A) NIR fluorescent imaging of mouse bearing human pancreatic PDX tumors in subrenal capsules (excitation: 783 nm; […] nm) (B) Ex vivo bright field and NIR fluorescent imaging of pancreatic PDX tumors in the kidney capsules and other organs harvested from mouse and (C) the NIR fluorescent intensity was quantified for the tumor and for each organ (total radiance efficiency [p/s]/[μW/cm^2]) (D) Fluorescent microscopy of DAPI, NIR, and merged images of frozen section of pancreatic PDX tumor in the kidney capsule. White dash line outlines the mouse kidney and red dash line outlines the pancreatic PDX tumor.
# The uptakes of NIR dye MHI-148, by pancreatic patient-derived xenografts (PDX) tumors implanted in mouse subrenal capsules were investigated. […] White dash line outlines the mouse kidney and red dash line outlines the pancreatic PDX tumor.
# PC3 = assay: Tumor cell growth inhibition IC50, PC3; format: cell-based; conditions: Prostate Cancer cell line PC3; read-out: Half maximal inhibitory concentration (IC50) PC3
# Excerpt: (§1) In addition to DZ-1-Gem, some agents of the invention may include other antitumor active moieties, such as cisplatin. For example, the tumor cell growth inhibition activities of DZ-1 linked with cisplatin (“DZ-1-cisplatin”) were compared with those of cisplatin alone in various tumor cells, including prostate, breast, renal, kidney, and lung cancer cell lines.
# LNCaP [1] = assay: Tumor cell growth inhibition IC50, LNCaP; format: cell-based; conditions: Prostate Cancer cell line LNCaP; read-out: Half maximal inhibitory concentration (IC50) LNCaP
# Excerpt: as §1
# C4-2B [2] = assay: Tumor cell growth inhibition IC50, C4-2B; format: cell-based; conditions: Prostate Cancer cell line C4-2B; read-out: Half maximal inhibitory concentration (IC50) C4-2B
# Excerpt: as §1
# MCF-7 = assay: Tumor cell growth inhibition IC50, MCF-7; format: cell-based; conditions: Breast Cancer cell line MCF-7; read-out: Half maximal inhibitory concentration (IC50) MCF-7
# Excerpt: as §1
# ACHN = assay: Tumor cell growth inhibition IC50, ACHN; format: cell-based; conditions: Renal Cancer cell line ACHN; read-out: Half maximal inhibitory concentration (IC50) ACHN
# Excerpt: as §1
# Hep G2 = assay: Tumor cell growth inhibition IC50, Hep G2; format: cell-based; conditions: Hepatic Cancer cell line Hep G2; read-out: Half maximal inhibitory concentration (IC50) Hep G2
# H358 = assay: Tumor cell growth inhibition IC50, H358; format: cell-based; conditions: Lung Cancer cell line H358; read-out: Half maximal inhibitory concentration (IC50) H358
# Excerpt: as §1
# [3] = test system: prostate cancer PC3 tumors; assay: Uptake by prostate cancer PC3 tumors in mice (NIR imaging); format: in vivo; conditions: for uptake by PC3 tumor in mice: 100 nmole i.p., imaged 48 hours thereafter
# cancer = assay: In vivo cancer targeting of heptamethine cyanine dye derivatives (Nuclear/NIR imaging); conditions: tumor specific uptake by Nuclear/NIR imaging
# Excerpt: The inventor synthesized several heptamethine cyanine dye derivatives (Table 1) and evaluated the tumor specific uptake using Nuclear/NIR imaging.
# LNCaP [4] = assay: Cytotoxicity (IC50) on cancer cell growth in vitro, LNCaP; format: cell-based, human; conditions: LNCaP prostate cancer cells in culture
# C4-2 = assay: Cytotoxicity (IC50) on cancer cell growth in vitro, C4-2; format: cell-based, human; conditions: C4-2 prostate cancer cells in culture
# PC-3 = assay: Cytotoxicity (IC50) on cancer cell growth in vitro, PC-3; format: cell-based, human; conditions: PC-3 prostate cancer cells in culture
# MiaPaCa II = assay: Cytotoxicity (IC50) on cancer cell growth in vitro, MiaPaCa II; format: cell-based, human; conditions: MiaPaCa II pancreatic cancer cells in culture
# BX-PC3 = assay: Cytotoxicity (IC50) on cancer cell growth in vitro, BX-PC3; format: cell-based, human; conditions: BX-PC3 pancreatic cancer cells in culture
# CW22Rv1 cells = conditions: 5 μM, 10 min
# Procedure: (§2) (A) Uptake of DZ-1-Gem (5 μM, 10 min) by U87 and CW22Rv1 cells. IR-783 was used a positive control in parallel. Scale bar represents 50 μm. (B) Proliferation of U87 cells treated with vehicle, gemcitabine (200 nM) or DZ-1-Gem (200 nM) for 4 consecutive days.
# (§3) IR-783 was used a positive control in parallel. Scale bar represents 50 μm.
# U87 cells [5] = conditions: 5 μM, 10 min
# Procedure: as §2, §3
# U87 cells [6] = conditions: 200 nM, 4 consecutive days
# Procedure: as §2
# (§4) In these experiments, cells were fixed and stained with crystal violet, and OD value at the wavelength of 595 nm was determined (n=5 for each experimental group, mean±SEM) *p<0.05, **p<0.01.
# intracranial U87 tumor = conditions: 10 mg/kg, twice a week
# Procedure: as §2, §4
# [7] = test system: CW22Rv1 prostate tumor brain metastases; assay: Survival of mice bearing CW22Rv1 prostate tumor brain metastases (Kaplan-Meier); format: in vivo; conditions: 10 mg/kg, twice a week; p<0.001 (log-rank test) vs vehicle
# Excerpt: as §3
# pancreatic MIAPaCa cells = conditions: DZ-1-gemcitabine 10 mg/kg vs gemcitabine 2.5 mg/kg, twice a week i.p.
# Excerpt: (§5) Arrows indicate the onset of treatments. * p<0.05; ** p<0.01; *** p<0.001.
# as §5
# [8] = test system: prostate cancer PC3 cells; conditions: DZ-1-gemcitabine 10 mg/kg vs gemcitabine 2.5 mg/kg, twice a week i.p.
# Excerpt: as §5, §5
# MIAPaCa tumors = conditions: 10 mg/kg; subcutaneous luc-tagged MIAPaCa tumors; in vivo and ex vivo imaging
# C4-2B [9] = assay: Cytotoxicity (IC50) on cancer cell growth in vitro, C4-2B; format: cell-based, human; conditions: C4-2B prostate cancer cells in culture
molecule,measurement,setting,value
CC1(C)C(/C=C/C2=C(Cl)C(=C/C=C3\N(CCCCCC(=O)O)c4ccccc4C3(C)C)/CCC2)=[N+](CCCCCC(=O)O)c2ccccc21 [MHI-148],NIR fluorescence signal (uptake) in prostate PDX tumor vs sham-operated kidney and control mouse,prostate PDX tumors,Only the prostate cancer tumor implanted in the subrenal capsule of the right kidney showed the NIR fluorescence signal
same,uptake of NIR dye in pancreatic PDX tumor vs mouse kidney (fluorescent microscopy of frozen section),pancreatic PDX tumors,Only the pancreatic tumor uptakes the NIR dye
IR-783-N1-methylethylenediamine-cisplatin [DZ-1-cisplatin],pIC50,PC3,5.12
same,pIC50,LNCaP [1],4.67
same,pIC50,C4-2B [2],4.80
same,pIC50,MCF-7,4.88
same,pIC50,ACHN,5.39
same,pIC50,Hep G2,< 4.30
same,pIC50,H358,5.31
same,uptake by PC3 tumor in mice,[3],"accumulate only in the tumor cells, but not in the normal organs"
CC1(C)C(/C=C/C2=C(Cl)C(=C/C=C3/N(CCCCCC(=O)Nc4ccn(C5OC(CO)C(O)C5(F)F)c(=O)n4)c4ccccc4C3(C)C)/CCC2)=[N+](CCCCS(=O)(=O)[O-])c2ccccc21 (stereo not drawn),Cancer targeting,cancer,Positive
CC1(C)C(/C=C/C2=C(Cl)C(=C/C=C3/N(CCCCCC(=O)Nc4ccc(CC5CN(CC(=O)O)CCN(CC(=O)O)CCN5CC(=O)O)cc4)c4ccccc4C3(C)C)/CCC2)=[N+](CCCCS(=O)(=O)[O-])c2ccccc21 (stereo not drawn),Cancer targeting,cancer,Positive
CCC(=[N][Pt]([NH2])([NH2])[Cl])N(C)CCNC(=O)CCCCCN1/C(=C/C=C2\CCCC(/C=C/C3=[N+](CCCCS(=O)(=O)[O-])c4ccccc4C3(C)C)=C2Cl)C(C)(C)c2ccccc21,Cancer targeting,cancer,Positive
Nc1ccn([C@@H]2O[C@H](CO)[C@@H](O)C2(F)F)c(=O)n1 [Gemcitabine],pIC50,LNCaP [4]; Homo sapiens,6.60
same,pIC50,C4-2; Homo sapiens,7.07
same,pIC50,PC-3; Homo sapiens,6.42
same,pIC50,"MiaPaCa II; Homo sapiens, MIA PaCa-2",7.66
same,pIC50,"BX-PC3; Homo sapiens, BXPC-3",6.87
CC(=O)O[C@@]12CO[C@@H]1C[C@H](O)[C@@]1(C)C(=O)[C@H](O)C3=C(C)[C@@H](OC(=O)[C@H](O)[C@@H](NC(=O)OC(C)(C)C)c4ccccc4)C[C@@](O)([C@@H](OC(=O)c4ccccc4)[C@H]21)C3(C)C [Docetaxel],pIC50,LNCaP [4]; Homo sapiens,8.00
same,pIC50,C4-2; Homo sapiens,5.49
same,pIC50,PC-3; Homo sapiens,6.48
same,pIC50,"MiaPaCa II; Homo sapiens, MIA PaCa-2",8.22
same,pIC50,"BX-PC3; Homo sapiens, BXPC-3",8.15
CC1(C)C(/C=C/C2=C(Cl)C(=C/C=C3/N(CCCCCC(=O)O)c4ccccc4C3(C)C)/CCC2)=[N+](CCCCCC(=O)O)c2ccccc21,Cancer targeting,cancer,Positive
CC1(C)C(/C=C/C2=C(Cl)C(=C/C=C3/N(CCCCCC(=O)NCCCCC(NC(=O)CN4CCN(CC(=O)O)CCN(CC(=O)O)CCN(CC(=O)O)CC4)C(=O)O)c4ccccc4C3(C)C)/CCC2)=[N+](CCCCS(=O)(=O)[O-])c2ccccc21 (stereo not drawn),Cancer targeting,cancer,Positive
CC1(C)C(/C=C/C2=C(SCCCC(=O)O)C(=C/C=C3/N(CCCCS(=O)(=O)O)c4ccccc4C3(C)C)/CCC2)=[N+](CCCCS(=O)(=O)[O-])c2ccccc21,Cancer targeting,cancer,Negative
CC1(C)C(/C=C/C2=C(Cl)C(=C/C=C3/N(CCCCCC(=O)O)c4ccccc4C3(C)C)/CCC2)=[N+](CCCCS(=O)(=O)[O-])c2ccccc21,Cancer targeting,cancer,Positive
IR-783-gemcitabine [DZ-1-gemcitabine],pIC50,LNCaP [4],6.47
same,pIC50,C4-2,7.03
same,pIC50,PC-3,6.38
same,pIC50,MiaPaCa II,7.07
same,pIC50,BX-PC3,6.64
same,uptake by PC3 tumor in mice,[3],"accumulate only in the tumor cells, but not in the normal organs"
same,uptake by PC3 tumors vs normal organs,"[3]; 10 mg/kg, subcutaneous luc-tagged PC3 tumors, in vivo and ex vivo imaging",specifically by prostate and pancreatic tumors but not normal organs
same,uptake by CW22Rv1 cells,CW22Rv1 cells,readily taken up
same,uptake by U87 cells,U87 cells [5],readily taken up
same,inhibition of U87 cell proliferation,U87 cells [6],as effective as Gem
same,intracranial U87 tumor growth (bioluminescence),intracranial U87 tumor,"effectively suppressed tumor growth, resulting in no bioluminescence"
same,survival of mice,[7],significantly improved survival
same,prevention and inhibition of subcutaneous MIAPaCa tumor growth (tumor volume),pancreatic MIAPaCa cells,more effective than Gemcitabine
same,prevention and inhibition of subcutaneous PC3 tumor growth (tumor volume),[8],more effective than Gemcitabine
same,uptake by MIAPaCa tumors vs normal organs,MIAPaCa tumors,specifically by prostate and pancreatic tumors but not normal organs
C#CCN(C)CCCOc1ccc(Cl)cc1Cl [Clorgyline],pIC50,LNCaP [4],4.09
same,pIC50,C4-2B [9],3.94
same,pIC50,PC-3,3.92
CC1(C)C(/C=C/C2=C(NCCCC(=O)O)C(=C/C=C3/N(CCCCS(=O)(=O)O)c4ccccc4C3(C)C)/CCC2)=[N+](CCCCS(=O)(=O)[O-])c2ccccc21,Cancer targeting,cancer,Negative
CC1(C)C(/C=C/C2=C(SCCC(=O)Nc3ccn(C4OC(CO)C(O)C4(F)F)c(=O)n3)C(=C/C=C3/N(CCCCS(=O)(=O)O)c4ccccc4C3(C)C)/CCC2)=[N+](CCCCS(=O)(=O)[O-])c2ccccc21 (stereo not drawn),Cancer targeting,cancer,Negative
CC1(C)C(/C=C/C2=C(Cl)C(=C/C=C3/N(CCCCS(=O)(=O)O)c4ccccc4C3(C)C)/CCC2)=[N+](CCCCS(=O)(=O)[O-])c2ccccc21,Cancer targeting,cancer,Positive
"N.N.[Cl][Pt][Cl] [Cisplatin, reference compound]",pIC50,PC3,< 4.30
same,pIC50,LNCaP [1],< 4.30
same,pIC50,C4-2B [2],< 4.30
same,pIC50,ACHN,4.54
same,pIC50,Hep G2,< 4.30
same,pIC50,H358,< 4.30
